Data: patent publication US20160346389A1, “MODIFIED PARAMAGNETIC NANOPARTICLES FOR TARGETED DELIVERY OF THERAPEUTICS AND METHODS THEREOF” (ALBERT EINSTEIN COLLEGE OF MEDICINE INC., priority 2013, published 2016)
Each block holds one compound with its values, some of them ahead of it.

What was measured:
[1] = test system: human breast cancer xenographs; assay: MRI of magnetic field induced localization of PMNPs in breast cancer xenograft mice; format: in vivo, mouse
Protocol: FIGS. 3(A-D). […] By applying a magnet field for 30 minutes at hind end (blue arrows), the enhanced image of hind-end tumor is observed (3B). The enhanced image of the tumor persists for at least several hours. […] The PMNPs are concentrated at site of a lower abdominal mammary tumor (FIG. 3C) using an external magnetic field placed over the tumor for 30 minutes. […] Imaging was performed over several hours without taking the mouse out of MRI machine thereby maintaining all of the imaging parameters.
FIGS. 4(A-B). Compares the MRI contrast data between […] and gadolinium oxide-based PMNPs.
In FIG. 3 are presented results on magnetic immobilization of gadolinium-based PMNPs in a mouse with numerous human breast cancer xenographs. There is no image enhancement for any of the multiple tumors located in different parts of the mouse including one at hind end (green-arrow at bottom of the picture marked tumor). The mouse was then removed and then subjected to thirty minutes of having a magnetic field placed over the tumor demarked by the green arrow. […] The intensity of MRI signal is very similar at both tumor and bladder. This is very different than observed in case of […] where there is a transient image of the bladder and no site specific localization of the contrast agent in any one of the tumors. […]

[2] = test system: human breast cancer line, MDA-MB-436; assay: Tumor necrosis in xenografted human breast cancer; format: in vivo, mice; details: 1.0 mg/kg
[3] = Histopathological analysis of multiple tissues (toxicity); format: in vivo, mice; details: same dose (1 mg/kg BW)
Protocol: FIGS. 11(A-B). Systemic effect of the treatment. (A) Representative H&E staining of tissue sections from ADM-PMNP injected mice (1 mg/kg BW)(A). (B) inflammation and hyperplasia were found in colon from mice treated with free ADM (B-left) but not in mice injected with the same dose of ADM-PMNP (B-right).

[4] = test system: MoB-1833 mammary xenografted tumor; assay: ADM-PMNP plus magnetic field on xenografted human breast cancer, bioluminescence; format: in vivo, mouse; details: comparable amount of free drug
Protocol: FIG. 8 Anti-tumor effect of IV infused Adriamycin loaded PMNP (ADM-PMNP) plus magnetic field treatment on xenografted human breast cancer. Human breast cancer was s.c. xenografted in a female nude mouse. The mouse was injected with 1 mg/kg ADM-PMNP and the tumor was treated with magnetic field for 30 minutes following each injection The mouse was imaged before and after the treatment, the luminescent signals were quantitatively analyzed for change of tumor size. At the end of the treatment, there was a >80% decrease of luminescent signaling in the tumor. The signal recovered partially 3 days after the treatment was ended.
Signal intensity in treated tumor was similar to that in bladder, a major route of PMNP elimination. Next, to assess drug delivery and anti-tumor efficacy, MoB-1833 mammary xenografted tumor-bearing mice were infused with ADM-coated PMNP (ADM-PMNP). ADM use in chemotherapy is limited due to systemic toxicity and it is therefore an excellent model drug for evaluation of the potentially utility of our PMNP platform. […] This ADM dose is 5-20 times lower than doses of free ADM commonly used for in animal studies and similar to doses used clinically. The 4-day treatment achieved a 9-fold reduction in tumor mass (FIG. 8). Tumor rebound upon drug termination confirmed specificity of the drug effect. […] The necrosis was confirmed histologically (FIG. 9Bd-f). […]

[5] = test system: U87 human glioblastoma cells; assay: Cell viability assay, Presto Blue, 48 h; format: cell-based
Protocol: FIG. 22 Cytotoxicity of naked curcumin, curcumin conjugated PMNPs and Sol-Gel Nps and blanks (without curcumin) performed on U87 human glioblastoma cells after 48 hours of incubation. Note that 1 μM equivalent curcumin concentration corresponds to 16.7 μg/mL of nanoparticles. […] The data represents the mean±SE, n=3 to 18.
Cells were plated in 24-well trays and allowed to become confluent then incubated with naked curcumin or different curcumin NP concentrations for 48 h. Cell viability was quantified using Presto Blue (Invitrogen) an assay that contains a cell permeable resazurin-based solution that is modified by the reducing environment of the viable cell becoming highly fluorescent. Using a plate reader, cell viability was quantified after 0.5-1 hours of incubation with Presto Blue. All measurements were always accompanied by control wells and by calibration wells to account for background fluorescence using the same culture media and the same NP concentrations without the cells.

[6] = Radiation protection by localized melanin; format: in vivo, rat; details: earlier studies
Text: The same protocol used for curcumin also works for melanin resulting in melanin loaded OA-PMNPs. These particles have potential use as radioprotectants. The melanin loaded OA-PMNPs would be infused into the patient and then magnetically localized in healthy tissue surrounding the diseased tissue targeted for radiation treatment. […] Additionally melanin loaded PMNP can be used as targeted contrast agent for photo-acoustic based imaging.

- persistence of MRI contrast ([1]; FIG. 4): short lived
- distribution of contrast agent by MRI ([1]; within a short time, no magnetic field): concentrates in the bladder
Compound: CNC[C@H](O)[C@@H](O)[C@H](O)[C@H](O)CO.CNC[C@H](O)[C@@H](O)[C@H](O)[C@H](O)CO.O=C([O-])CN(CCN(CC(=O)[O-])CC(=O)O)CCN(CC(=O)[O-])CC(=O)O.[Gd+3]

Compound: COc1cccc2c1C(=O)c1c(O)c3c(c(O)c1C2=O)C[C@@](O)(C(=O)CO)C[C@@H]3O[C@H]1C[C@H](N)[C@H](O)[C@H](C)O1 [Adriamycin, doxorubicin]
- tumor necrosis [2]: smaller necrotic lesions
- colon histology [3]: colonic inflammation and hyperplasia
- anti-tumor effect [4]: relatively ineffective

Compound: COc1cc(/C=C/C(=O)CC(=O)/C=C/c2ccc(O)c(OC)c2)ccc1O [Curcumin]
- equivalent Curcumin concentration that decreases cell viability by 20% [5]: 5 µM

Compound: melanin
- radiation damage in irradiated legs [6]: prevent radiation damage
